Results reported in patent publication US9107446B2, “Solubilizates of preservatives and method for producing the same” (AQUANOVA AG, priority 2006, dated 2015).
Like-named read-outs stand apart in the source and are kept apart here.

Columns and labels:
[1] = cited from earlier work
bacteria = details: 500 mg added to nutrient solution with agar; about three weeks contact time
[2] = in water; cited from earlier work
Saccharomyces cerevisae = details: pH 6.2, room temperature; for Bacteria Count: 0.4 ml yeast solution

C/C=C/C=C/C(=O)O [Sorbic Acid]
Anion, dis. ([1]; pH Value 3): 1.7%
Anion, dis. ([1]; pH Value 4.0): 14.7%
Anion, dis. ([1]; pH Value 5.0): 63%

C/C=C/C=C/C(=O)[O-].[K+] [Potassium Sorbate]
Bacteria Count (bacteria): 1.6×10^10
Solubility, Water [2]: 138 g/100 g

O=C(O)c1ccccc1 [Benzoic Acid]
Bacteria Count (Saccharomyces cerevisae; Benzoic Acid Concentration 10 ppm, After 3 days): 1,650,000/ml
Bacteria Count (Saccharomyces cerevisae; Benzoic Acid Concentration 10 ppm, After 7 days): 1,200,000/ml
Bacteria Count (Saccharomyces cerevisae; Benzoic Acid Concentration 10 ppm, After 15 days): 800,000/ml
Bacteria Count (Saccharomyces cerevisae; Benzoic Acid Concentration 10 ppm, After 22 days): 1,100,000/ml
Bacteria Count (Saccharomyces cerevisae; Benzoic Acid Concentration 10 ppm, After 29 days): 1,300,000/ml
Bacteria Count (Saccharomyces cerevisae; Benzoic Acid Concentration 10 ppm, Initial): 2,900/ml
Bacteria Count (Saccharomyces cerevisae; Benzoic Acid Concentration 50 ppm, After 3 days): 1,900,000/ml
Bacteria Count (Saccharomyces cerevisae; Benzoic Acid Concentration 50 ppm, After 7 days): 1,100,000/ml
Bacteria Count (Saccharomyces cerevisae; Benzoic Acid Concentration 50 ppm, After 15 days): 900,000/ml
Bacteria Count (Saccharomyces cerevisae; Benzoic Acid Concentration 50 ppm, After 22 days): 930,000/ml
Bacteria Count (Saccharomyces cerevisae; Benzoic Acid Concentration 50 ppm, After 29 days): 1,300,000/ml
Bacteria Count (Saccharomyces cerevisae; Benzoic Acid Concentration 50 ppm, Initial): 2,900/ml
Bacteria Count (Saccharomyces cerevisae; Benzoic Acid Concentration 100 ppm, After 3 days): 670,000/ml
Bacteria Count (Saccharomyces cerevisae; Benzoic Acid Concentration 100 ppm, After 7 days): 530,000/ml
Bacteria Count (Saccharomyces cerevisae; Benzoic Acid Concentration 100 ppm, After 15 days): 600,000/ml
Bacteria Count (Saccharomyces cerevisae; Benzoic Acid Concentration 100 ppm, After 22 days): 1,200,000/ml
Bacteria Count (Saccharomyces cerevisae; Benzoic Acid Concentration 100 ppm, After 29 days): 900,000/ml
Bacteria Count (Saccharomyces cerevisae; Benzoic Acid Concentration 100 ppm, Initial): 2,900/ml
Bacteria Count (Saccharomyces cerevisae; Benzoic Acid Concentration 200 ppm, After 3 days): 510,000/ml
Bacteria Count (Saccharomyces cerevisae; Benzoic Acid Concentration 200 ppm, After 7 days): 430,000/ml
Bacteria Count (Saccharomyces cerevisae; Benzoic Acid Concentration 200 ppm, After 15 days): 350,000/ml
Bacteria Count (Saccharomyces cerevisae; Benzoic Acid Concentration 200 ppm, After 22 days): 400,000/ml
Bacteria Count (Saccharomyces cerevisae; Benzoic Acid Concentration 200 ppm, After 29 days): 400,000/ml
Bacteria Count (Saccharomyces cerevisae; Benzoic Acid Concentration 200 ppm, Initial): 2,900/ml
Bacteria Count (Saccharomyces cerevisae; Benzoic Acid Concentration 300 ppm, After 3 days): 630,000/ml
Bacteria Count (Saccharomyces cerevisae; Benzoic Acid Concentration 300 ppm, After 7 days): 400,000/ml
Bacteria Count (Saccharomyces cerevisae; Benzoic Acid Concentration 300 ppm, After 15 days): 520,000/ml
Bacteria Count (Saccharomyces cerevisae; Benzoic Acid Concentration 300 ppm, After 22 days): 250,000/ml
Bacteria Count (Saccharomyces cerevisae; Benzoic Acid Concentration 300 ppm, After 29 days): 230,000/ml
Bacteria Count (Saccharomyces cerevisae; Benzoic Acid Concentration 300 ppm, Initial): 2,900/ml
Bacteria Count (Saccharomyces cerevisae; Benzoic Acid Concentration 500 ppm, After 3 days): 700 mL⁻¹
Bacteria Count (Saccharomyces cerevisae; Benzoic Acid Concentration 500 ppm, After 7 days): 55,000/ml
Bacteria Count (Saccharomyces cerevisae; Benzoic Acid Concentration 500 ppm, After 15 days): 230,000/ml
Bacteria Count (Saccharomyces cerevisae; Benzoic Acid Concentration 500 ppm, After 22 days): 120,000/ml
Bacteria Count (Saccharomyces cerevisae; Benzoic Acid Concentration 500 ppm, After 29 days): 43,000/ml
Bacteria Count (Saccharomyces cerevisae; Benzoic Acid Concentration 500 ppm, Initial): 2,900/ml
yeast growth (in words) (Saccharomyces cerevisae; benzoic acid concentration of 500 ppm, after 29 days of contact time): high yeast growth
Anion, dis. ([1]; pH Value 3): 6%
Anion, dis. ([1]; pH Value 3.5): 16.7%
Anion, dis. ([1]; pH Value 4.0): 38.7%
Anion, dis. ([1]; pH Value 5.0): 86.5%
